Results reported in the supplement of paper PMC4862054.

Experiments:
Conditions in all cases: incubation time: 72 h
[1] = system: CAL-120; test: normalised viability (% of control), CellTiter-Blue; higher = more viable cells (about 100 = DMSO control)
Procedure: (§1)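 DSRT, CellTiter-Blue viability, 72 h incubation. Signal is normalised to DMSO and benzethonium chloride controls. Value is the normalised response at dose 3.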

[2] = system: CAL-148; test: as above
Procedure: as §1

[3] = system: HCC1143; test: as above
Procedure: as §1

[4] = system: HCC1599; test: as above
Procedure: as §1

[5] = system: HCC1937; test: as above
Procedure: as §1

[6] = system: MDA-MB-231; test: as above
Procedure: as §1

[7] = system: MDA-MB-453; test: as above
Procedure: as §1

[8] = system: MDA-MB-468; test: as above
Procedure: as §1

[9] = system: CAL-148; test: as above; remark: listed apart in the source
Procedure: (§2)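 DSRT, CellTiter-Blue viability, 72 h incubation. Signal is normalised to DMSO and benzethonium chloride controls. Value is the normalised response at dose 7.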

[10] = system: CAL-51; test: as above
Procedure: as §2

[11] = system: CAL-85-1; test: as above
Procedure: as §2

[12] = system: DU-4475; test: as above
Procedure: as §2

[13] = system: HDQ-P1; test: as above
Procedure: as §2

[14] = system: MDA-MB-453; test: as above; remark: listed apart in the source
Procedure: as §2

[15] = system: BT-549; test: normalised viability (% of control), CellTiter-Blue; higher = more viable cells (100 = DMSO, 0 = benzethonium chloride kill control)
Outline: (§3)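 After 72 h on compound-loaded 384-well plates, breast cancer cell lines received 2.5 µl CellTiter-Blue reagent for 2 h at 37 °C. Fluorescence at 560/590 nm was scaled per plate so that vehicle was 100 and a positive kill control was 0. The value stands for normalised viability at a single listed concentration of the series.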

[16] = system: CAL-120; test: as above
Outline: as §3

[17] = system: CAL-148; test: as above
Outline: as §3

[18] = system: CAL-51; test: as above
Outline: as §3

[19] = system: DU-4475; test: as above
Outline: as §3

[20] = system: HCC1143; test: as above
Outline: as §3

[21] = system: HCC1599; test: as above
Outline: as §3

[22] = system: HCC1937; test: as above
Outline: as §3

[23] = system: HDQ-P1; test: as above
Outline: as §3

[24] = system: Hs578T; test: as above
Outline: as §3

[25] = system: MDA-MB-231; test: as above
Outline: as §3

[26] = system: MDA-MB-436; test: as above
Outline: as §3

[27] = system: MDA-MB-453; test: as above
Outline: as §3

[28] = system: MDA-MB-468; test: as above
Outline: as §3

[29] = system: MFM-223; test: as above
Outline: as §3

[30] = system: SK-BR-3; test: as above
Outline: as §3

With `Nc1ccccc1NC(=O)c1ccc(CNC(=O)OCc2cccnc2)cc1` [Entinostat] the normalised viability ([1]; 100 nM) was 85.4%, the normalised viability ([2]; 10 nM) was 93.3% and the normalised viability ([3]; 100 nM) was 82.2%. The normalised viability ([4]; 100 nM) was 93.3%, the normalised viability ([5]; 100 nM) was 104% and the normalised viability ([6]; 100 nM) was 97.1%. For the same compound, the normalised viability ([7]; 10 nM) was 120%, the normalised viability ([8]; 100 nM) was 110% and the normalised viability ([9]; 1000 nM) was 78.8%. For the same compound, the normalised viability ([10]; 1000 nM) was 105%, the normalised viability ([11]; 1000 nM) was 85.4% and the normalised viability ([12]; 1000 nM) was 121%. For the same compound, the normalised viability ([13]; 1000 nM) was 111%, the normalised viability ([14]; 1000 nM) was 89.1% and the normalised viability ([15]; 1 nM) was 107%. For the same compound, the normalised viability ([16]; 1 nM) was 83.6%, the normalised viability ([17]; 1 nM) was 95.8% and the normalised viability ([18]; 1 nM) was 110%. The normalised viability ([19]; 1 nM) was 119%, the normalised viability ([20]; 1 nM) was 95.7% and the normalised viability ([21]; 1 nM) was 102%. It also gave a normalised viability ([22]; 1 nM) of 80.4%, a normalised viability ([23]; 1 nM) of 113% and a normalised viability ([24]; 1 nM) of 118%. It also gave a normalised viability ([25]; 1 nM) of 102%, a normalised viability ([26]; 1 nM) of 124% and a normalised viability ([27]; 1 nM) of 113%. The normalised viability ([28]; 1 nM) was 110%, the normalised viability ([29]; 1 nM) was 98.7% and the normalised viability ([30]; 1 nM) was 102%.
For `O=C(/C=C/c1cccnc1)NCCCCC1CCN(C(=O)c2ccccc2)CC1` [FK-866], the normalised viability ([1]; 10 nM) was 55%, the normalised viability ([2]; 1 nM) was 91.5% and the normalised viability ([3]; 10 nM) was 43.2%. For the same compound, the normalised viability ([4]; 10 nM) was 74.7%, the normalised viability ([5]; 10 nM) was 91.1% and the normalised viability ([6]; 10 nM) was 83.1%. For the same compound, the normalised viability ([7]; 1 nM) was 86.1%, the normalised viability ([8]; 10 nM) was 8.4% and the normalised viability ([9]; 100 nM) was 53.7%. It also gave a normalised viability ([10]; 100 nM) of 44.3%, a normalised viability ([11]; 100 nM) of 54.6% and a normalised viability ([12]; 100 nM) of 6.4%. The normalised viability ([13]; 100 nM) was 48.9%, the normalised viability ([14]; 100 nM) was 21.1% and the normalised viability ([15]; 0.1 nM) was 97.3%. It also gave a normalised viability ([16]; 0.1 nM) of 106%, a normalised viability ([17]; 0.1 nM) of 110% and a normalised viability ([18]; 0.1 nM) of 101%. It also gave a normalised viability ([19]; 0.1 nM) of 102%, a normalised viability ([20]; 0.1 nM) of 97.5% and a normalised viability ([21]; 0.1 nM) of 105%. It also gave a normalised viability ([22]; 0.1 nM) of 107%, a normalised viability ([23]; 0.1 nM) of 105% and a normalised viability ([24]; 0.1 nM) of 105%. The normalised viability ([25]; 0.1 nM) was 96.6%, the normalised viability ([26]; 0.1 nM) was 107% and the normalised viability ([27]; 0.1 nM) was 103%. It also gave a normalised viability ([28]; 0.1 nM) of 106%, a normalised viability ([29]; 0.1 nM) of 105% and a normalised viability ([30]; 0.1 nM) of 94.4%.
For `Nc1nc(F)nc2c1ncn2[C@@H]1O[C@H](CO)[C@@H](O)[C@@H]1O` [Fludarabine], the normalised viability ([1]; 100 nM) was 82.2%, the normalised viability ([2]; 10 nM) was 90.9% and the normalised viability ([3]; 100 nM) was 83%. It also gave a normalised viability ([4]; 100 nM) of 105%, a normalised viability ([5]; 100 nM) of 110% and a normalised viability ([6]; 100 nM) of 95.3%. It also gave a normalised viability ([7]; 10 nM) of 109%, a normalised viability ([8]; 100 nM) of 109% and a normalised viability ([9]; 1000 nM) of 93.8%. It also gave a normalised viability ([10]; 1000 nM) of 102%, a normalised viability ([11]; 1000 nM) of 93.8% and a normalised viability ([12]; 1000 nM) of 99.5%. The normalised viability ([13]; 1000 nM) was 98.4%, the normalised viability ([14]; 1000 nM) was 108% and the normalised viability ([15]; 1 nM) was 110%. The normalised viability ([16]; 1 nM) was 83%, the normalised viability ([17]; 1 nM) was 81.9% and the normalised viability ([18]; 1 nM) was 103%. It also gave a normalised viability ([19]; 1 nM) of 101%, a normalised viability ([20]; 1 nM) of 86.8% and a normalised viability ([21]; 1 nM) of 92.6%. The normalised viability ([22]; 1 nM) was 105%, the normalised viability ([23]; 1 nM) was 134% and the normalised viability ([24]; 1 nM) was 109%. The normalised viability ([25]; 1 nM) was 89.1%, the normalised viability ([26]; 1 nM) was 90.5% and the normalised viability ([27]; 1 nM) was 102%. It also gave a normalised viability ([28]; 1 nM) of 91.2%, a normalised viability ([29]; 1 nM) of 101% and a normalised viability ([30]; 1 nM) of 98.7%.
`O=C(Cc1ccc(-c2ccc(OCCN3CCOCC3)cc2)cn1)NCc1ccccc1` [KX2-391] was tested, and the normalised viability ([1]; 100 nM) was 27.6%, the normalised viability ([2]; 10 nM) was 89.1% and the normalised viability ([3]; 100 nM) was 33%. The normalised viability ([4]; 100 nM) was 88%, the normalised viability ([5]; 100 nM) was 25.1% and the normalised viability ([6]; 100 nM) was 26.1%. The normalised viability ([7]; 10 nM) was 107%, the normalised viability ([8]; 100 nM) was 47.6% and the normalised viability ([9]; 1000 nM) was 18.4%. It also gave a normalised viability ([10]; 1000 nM) of 11.1%, a normalised viability ([11]; 1000 nM) of 33.9% and a normalised viability ([12]; 1000 nM) of 9.93%. The normalised viability ([13]; 1000 nM) was 45.1%, the normalised viability ([14]; 1000 nM) was 25% and the normalised viability ([15]; 1 nM) was 124%. The normalised viability ([16]; 1 nM) was 93.8%, the normalised viability ([17]; 1 nM) was 107% and the normalised viability ([18]; 1 nM) was 106%. For the same compound, the normalised viability ([19]; 1 nM) was 103%, the normalised viability ([20]; 1 nM) was 92.7% and the normalised viability ([21]; 1 nM) was 85.8%. It also gave a normalised viability ([22]; 1 nM) of 93.7%, a normalised viability ([23]; 1 nM) of 138% and a normalised viability ([24]; 1 nM) of 130%. The normalised viability ([25]; 1 nM) was 92.8%, the normalised viability ([26]; 1 nM) was 89% and the normalised viability ([27]; 1 nM) was 116%. It also gave a normalised viability ([28]; 1 nM) of 113%, a normalised viability ([29]; 1 nM) of 91.7% and a normalised viability ([30]; 1 nM) of 105%.
`N#Cc1ccc(C(c2ccc(C#N)cc2)n2cncn2)cc1` [Letrozole] was tested, and the normalised viability ([1]; 100 nM) was 76.4%, the normalised viability ([2]; 10 nM) was 87.8% and the normalised viability ([3]; 100 nM) was 77.9%. The normalised viability ([4]; 100 nM) was 104%, the normalised viability ([5]; 100 nM) was 97.4% and the normalised viability ([6]; 100 nM) was 84%. For the same compound, the normalised viability ([7]; 10 nM) was 88%, the normalised viability ([8]; 100 nM) was 91.3% and the normalised viability ([9]; 1000 nM) was 86%. It also gave a normalised viability ([10]; 1000 nM) of 106%, a normalised viability ([11]; 1000 nM) of 84.8% and a normalised viability ([12]; 1000 nM) of 87.2%. The normalised viability ([13]; 1000 nM) was 83.8%, the normalised viability ([14]; 1000 nM) was 96.5% and the normalised viability ([15]; 1 nM) was 105%. It also gave a normalised viability ([16]; 1 nM) of 74.3%, a normalised viability ([17]; 1 nM) of 107% and a normalised viability ([18]; 1 nM) of 108%. The normalised viability ([19]; 1 nM) was 96.3%, the normalised viability ([20]; 1 nM) was 73.7% and the normalised viability ([21]; 1 nM) was 103%. For the same compound, the normalised viability ([22]; 1 nM) was 97.8%, the normalised viability ([23]; 1 nM) was 90.9% and the normalised viability ([24]; 1 nM) was 94.5%. The normalised viability ([25]; 1 nM) was 78.8%, the normalised viability ([26]; 1 nM) was 114% and the normalised viability ([27]; 1 nM) was 96.4%. For the same compound, the normalised viability ([28]; 1 nM) was 90.6%, the normalised viability ([29]; 1 nM) was 49.6% and the normalised viability ([30]; 1 nM) was 86.8%.
